Experimental data taken from publication PMC4474691, “Leukemia-Associated Mutations in Nucleophosmin Alter Recognition by CRM1: Molecular Basis of Aberrant Transport” (PLoS ONE, 2015).
Like-named read-outs stand apart in the source and are kept apart here.

Key:
[1] = molecular target: T1, CRM1^HA (Mus musculus, UniProt Q6P5F9, L431A/V430A/V432A); assay: Ni-NTA chromatography of TFP-NES / CRM1^HA complex formation; assay type: binding; conditions: 2.5 mg His-tagged TFP construct on 1 mL Histrap FF, 1 mL CRM1^HA 18 μM; 50 mM Tris/HCl pH 8.0, 500 mM NaCl; SDS-PAGE
T1 construct: His-ZZ (cleaved yes); made in house; host or cells: Escherichia coli BL21-CodonPlus (DE3)
T1 sequence (Q6P5F9 1-1062 V430A/L431A/V432A limits assumed): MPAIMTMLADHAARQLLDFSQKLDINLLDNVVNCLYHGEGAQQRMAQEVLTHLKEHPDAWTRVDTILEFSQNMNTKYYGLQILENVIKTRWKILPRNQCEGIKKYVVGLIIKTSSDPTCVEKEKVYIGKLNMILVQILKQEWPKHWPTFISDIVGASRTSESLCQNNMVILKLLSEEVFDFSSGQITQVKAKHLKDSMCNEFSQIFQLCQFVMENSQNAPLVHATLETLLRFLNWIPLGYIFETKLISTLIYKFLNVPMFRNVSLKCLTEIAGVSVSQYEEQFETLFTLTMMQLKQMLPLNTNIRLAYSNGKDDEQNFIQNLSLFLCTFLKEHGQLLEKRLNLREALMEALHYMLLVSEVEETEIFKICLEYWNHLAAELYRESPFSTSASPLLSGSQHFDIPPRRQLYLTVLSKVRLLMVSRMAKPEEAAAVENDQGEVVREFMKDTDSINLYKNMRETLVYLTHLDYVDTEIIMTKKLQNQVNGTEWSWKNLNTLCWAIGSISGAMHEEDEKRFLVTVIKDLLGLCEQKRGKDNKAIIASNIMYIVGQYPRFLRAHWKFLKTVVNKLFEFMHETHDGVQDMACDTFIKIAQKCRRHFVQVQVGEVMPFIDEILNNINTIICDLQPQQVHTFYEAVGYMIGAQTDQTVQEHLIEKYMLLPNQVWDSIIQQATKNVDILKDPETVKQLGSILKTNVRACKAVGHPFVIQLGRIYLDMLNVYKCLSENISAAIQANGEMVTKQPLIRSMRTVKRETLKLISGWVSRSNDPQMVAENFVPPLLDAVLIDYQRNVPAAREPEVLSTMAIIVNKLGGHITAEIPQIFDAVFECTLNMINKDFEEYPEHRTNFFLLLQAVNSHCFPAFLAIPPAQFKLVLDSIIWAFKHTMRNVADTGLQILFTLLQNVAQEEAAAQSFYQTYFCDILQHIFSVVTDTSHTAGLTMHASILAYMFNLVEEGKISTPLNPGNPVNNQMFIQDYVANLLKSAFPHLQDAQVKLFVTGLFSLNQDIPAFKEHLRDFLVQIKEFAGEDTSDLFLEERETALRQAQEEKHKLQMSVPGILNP
From the text: Although the relative potency of the NESs acquired by the different NPM mutants has been compared using an in vivo export assay, their CRM1-binding affinities have not yet been determined. We cloned the NESs of mutant A and E as C-terminal fusions to a teal fluorescent protein (TFP) (Fig 4A). As a reference, we generated an equivalent construct with the well-characterized NES of protein kinase inhibitor (PKI). We first tested the binding of CRM1^HA to the TFP-NES constructs using Ni-NTA chromatography. His-tagged TFP constructs were bound to the Ni-NTA column, and an excess of untagged CRM1^HA was then injected (S4 Fig).
Supplementary file pone.0130610.s004.tif: S4 Fig TFP-NES / CRM1^HA complex formation shown by Ni-NTA chromatography. 2.5 mg of the His-tagged TFP construct were loaded on a 1 mL Histrap FF (GE Healthcare) in buffer 50 mM Tris/HCl, pH 8.0, 500 mM NaCl, 1 mM TCEP, 2 mM MgCl2, 5% glycerol, containing 15 mM imidazole. After washing with the same buffer, 1 mL of CRM1^HA at 18 μM was injected at 0.1 mL/min flow rate. Unbound CRM1^HA was collected, and then bound proteins were eluted with 2 M imidazole. SDS-PAGE of elution fractions: Unbound (free) CRM1^HA and the fraction eluted with imidazole, containing both the His-tagged TFP construct along with bound CRM1^HA. (TIF) Click here for additional data file.

[2] = test system: wild type CRM1; assay: Fluorescence anisotropy binding assay, wild type CRM1; set-up: species or system mouse; conditions: TFP-PKI 50 nM, 25°C, 20 mM Tris/HCl pH 7.4, wild type CRM1, compared with CRM1^HA
From the text: For recombinant production in E. coli, we subcloned wild type NPM, as well as mutants A and E, as N-terminal (His)10 –ZZ tagged constructs in pTG-A20 vector [22]. The original clone of wild type mouse CRM1, N-terminally fused to a His—ZZ tag was a kind gift of Dr. Dirk Görlich (Max Planck Institute for Biophysical Chemistry, Göttingen). We generated the high affinity CRM1 mutant (CRM1^HA) from a clone provided by Dr. Murray Stewart (MRC Laboratory of Molecular Biology, Cambridge). […]
Fluorescence anisotropy binding assays
To estimate CRM1 binding affinities for NES motifs we monitored binding with a fluorescence-polarization assay based on previously described approaches. The increase in fluorescence anisotropy of TFP/YFP when the TFP/YFP-NES construct (50 nM) binds to 0–60 μM CRM1 (either CRM^HA or wild type) was recorded at 25°C with a 8100 SLM-Aminco spectrofluorometer in buffer 20 mM Tris/HCl, pH 7.4, 50 mM NaCl, 5 mM DTT, 2 mM MgCl2. […]
Fig 4 Binding of CRM1 to TFP-NES constructs. […] Fraction bound was calculated from the relative increase in fluorescence anisotropy of TFP (λexc 463 nm, λem 500 nm). […]
We next used the TFP-(NES) constructs to monitor CRM1^HA binding to each motif, using the change in fluorescence anisotropy upon complex formation as a readout (Fig 4B), as previously described. […]

[3] = molecular target: T1, CRM1^HA; conditions: previously described, CRM1^HA binding to YFP-PKI(NES); cited from earlier work
From the text: We next used the TFP-(NES) constructs to monitor CRM1^HA binding to each motif, using the change in fluorescence anisotropy upon complex formation as a readout (Fig 4B), as previously described.

[4] = molecular target: T1, CRM1^HA; assay: Isothermal titration calorimetry, CRM1^HA / NES; assay type: binding; conditions: ITC, NES ligand (35–180 μM) titrated onto CRM1^HA (2–14 μM), 20°C, 20 mM HEPES pH 7.4, 50 mM NaCl, 1 mM TCEP, 1 mM MgCl2; independent binding sites model; read-out: KD
Method: Isothermal titration calorimetry (ITC)
ITC measurements were carried out using a VIP-ITC MicroCalorimeter (MicroCal, Inc., Northampton, MA). TFP and YFP constructs, as well as CRM1^HA, were dialyzed in a buffer containing 20 mM HEPES, pH 7.4, 50 mM NaCl, 1 mM TCEP, 1 mM MgCl2, and degassed prior to the experiment. Untagged peptides (AS: QDLCLAVEEVSLRK, AL: EAIQDLCLAVEEVSLRK, ES: QDLWQSLAQVSLRK and EL: EAIQDLWQSLAQVSLRK), N-acetylated and 95% pure, were purchased from Proteogenix (Schiltigheim, France) and resuspended in the ITC buffer. Measurements were performed at 20°C. TFP-NES, YFP-NES or NES peptides at 35–180 μM were titrated onto CRM1^HA at 2–14 μM. Injections of 6 μL were performed at 320 seconds interval (the first injection always was of 1 μL and is not considered in data analysis). To determine the thermodynamic parameters of NPM / importin interaction, importin α, importin Δα or importin α/β at 45–60 μM were titrated onto NPM (1–1.2 μM pentamer) in 50 mM Tris/HCl, pH 7.5, 100 mM NaCl, 2 mM TCEP, and 10% glycerol. […] “Reverse” titrations, where 20–30 μM NPM was titrated onto 7–10 μM of the different importins were also performed and yielded similar results.
The reaction heat of each injection is related to the calorimetric enthalpy of binding, ΔH^0. The binding isotherms, ΔH^0 vs. molar ratio, were analyzed with an independent binding sites model using MicroCal Origin software. The fit of the binding curve yields the binding constant KA (KD = 1/KA) and the enthalpy ΔH^0 of the binding reaction. The Gibbs free energy of binding ΔG^0 and the entropy ΔS^0 are determined from the basic thermodynamic expressions: ΔG^0 = -RTlnKA = ΔH^0−TΔS^0, where R and T are the gas constant and the absolute temperature, respectively.
Fig 5 Analysis of CRM1^HA/TFP-NES interaction by ITC. Isothermal titration of CRM1^HA with TFP-mutE(NES). […] The titration of negative control TFP-Cter (180 μM) onto CRM1^HA (14 μM) (circles) is also shown for comparison.

[5] = molecular target: importin α/β; conditions: importin α/β binding of nucleoplasmin; cited from earlier work
From the text: Our study has explored the molecular determinants of both NPM export (CRM1/NES) and import (importin α/β/NLS). […] This lower affinity could be related to the fact that NPM NLS includes one basic residue less in the major cluster of the bipartite motif than NP NLS. […] This, together with the very low affinity of CRM1 for wild type NPM and significant avidity for nucleolar comp ...

[6] = test system: CRM1; conditions: cited from earlier work
From the text: Two sequence motifs in the core domain of NPM (residues 42–61 and 94–102) (Fig 1) have been investigated as candidate NESs. In addition, we have detected a further putative NES in the C-terminal region (see below). However, it is still unclear to what extent any of these sequences represents NPM physiological NESs.

Question: Which results are given for LALKLAGLDI [TFP-PKI(NES)]?
Answer: CRM1^HA binding in Ni-NTA chromatography [1]: stronger than its binding to TFP- mutE(NES); binding of wild type CRM1 [2]: much weaker than that of CRM1^HA

Question: With “YFP-PKI(NES): previously described YFP-PKI(NES) construct (LALKLAGLDI; fusion to YFP (carrier omitted); linker stated to be 2 residues longer than in TFP construct) [reference compound]” as the substance, how does the Kd [3] read?
Answer: 25 nM

Question: What about the Kd [4] of the same substance?
Answer: 18 ± 3 nM

Question: Which Kd [5] does the source give for “nucleoplasmin: homologous protein nucleoplasmin” here?
Answer: 57 nM

Question: With “residues 42–61: candidate NES motif in the core domain of NPM (LSLRTVSLGAGAKDELHIVE; UniProt P06748 42-61, looked up, fragment)” as the substance, how does the “binding to CRM1” value [6] read?
Answer: no binding to CRM1
